Assay results reported in patent publication US20010044463A1, “Methods for controlling gram negative bacteria in mammals” (priority 1997, published 2001).
In brackets after ≈: the same amount, converted by molar mass.

Key:
Staph ATCC 14775 = assay: Blood agar plate growth inhibition, control organism; assay type: cell-based
Procedure: (§1) Monensin (Sigma Cat. No. M-5273) was dissolved in 100% absolute ethanol (AAPER Alcohol and Chemical Co.) at a concentration of 20 mg/ml. Subsequent dilutions were made in ethanol immediately prior to use. Nigericin (Sigma Cat. No. N-7143) was dissolved in DMSO at 2 mg/ml. Subsequent dilutions were made in BHI medium (Brain heart infusion broth, Difco #0037-07-0) immediately prior to use.
(§2) Blood agar base (BAB) was prepared containing 1.5% agar and autoclaved. 20 ml samples of autoclaved BAB were poured into 50 mL tubes and placed in a 56° C. water bath.
(§3) 100 μl of a drug (final concentration equivalent to 1:200 of original concentration) and 1.2 ml of sheep blood (Colorado Senun Company # CS-1112) (blood diluted in a 1:1 buffer providing a 3% concentration of blood per 20 ml medium sample) were added to 20 ml sample of media and mixed. The mixed media preparation was poured into a petri dished and allowed to solidify.
Prior to inoculation of petri plates, bacteria or cultures were examined for morphology under a phase microscope to confirm motility and physical characteristics, e.g., spiral shaped. The organisms were washed off the plate into PBS (Phosphate buffered saline) (80.0 g NaCl, 2.0 g KCl, 2.4 g KH2PO4 11.5 g Na2HPO4 or 24.4 g Na2HPO4/2H2O per 1 liter deionized water, pH 7.2, sterilized by autoclaving) and diluted into BHI at a concentration of 10^8/ml (O.D. of 0.3 units diluted 1:30). Ten microliters of solution containing 10^6 organisms were spread onto a petri plate and grown under microaerophilic conditions for 3 days unless specified. […]
(§4) Inhibition of growth was determined by the amount of colonies present within the petri plate. The following factors were used for growth inhibition: ±=0-20 colonies, +=20-50 colonies, ++=50-200 colonies and +++=200+ colonies.

[1] = test system: H. pylori (urease negative) (Wild strain of ATCC 43504); assay: Minimum Inhibitory Concentration (MIC) blood agar plate growth inhibition; assay type: cell-based, Helicobacter pylori; conditions: Table III
Procedure: as §1, §2, §3
(§5) Prior to inoculation of petri plates, bacteria or cultures were examined for morphology under a phase microscope to confirm motility and physical characteristics, e.g., spiral shaped. The organisms were washed off the plate into PBS (Phosphate buffered saline) (80.0 g NaCl, 2.0 g KCl, 2.4 g KH2PO4 11.5 g Na2HPO4 or 24.4 g Na2HPO4/2H2O per 1 liter deionized water, pH 7.2, sterilized by autoclaving) and diluted into BHI at a concentration of 10^8/ml (O.D. of 0.3 units diluted 1:30). Ten microliters of solution containing 10^6 organisms were spread onto a petri plate and grown under microaerophilic conditions for 3 days unless specified. Control organisms were grown under microaerophilic conditions.
as §4

H. pylori ATCC 43504 = assay: as above; assay type: cell-based, Helicobacter pylori
Procedure: Subsequent dilutions were made in ethanol immediately prior to use. […] Subsequent dilutions were made in BHI medium (Brain heart infusion broth, Difco #0037-07-0) immediately prior to use.
as §2
The mixed media preparation was poured into a petri dished and allowed to solidify.
as §5, §4

[2] = test system: H. pylori (urease positive) ATCC Number 51652; assay: as above; assay type: cell-based, Helicobacter pylori; conditions: Table XVII, Blood agar base + 3% sheep blood
Procedure: as §1, §2, §3, §5, §4

[3] = final drug concentration 0.1 ng/ml
[4] = final drug concentration 10 ng/ml
[5] = final drug concentration 100 ng/ml
[6] = final drug concentration 1 μg/ml
[7] = final drug concentration 10 μg/ml

CO[C@@H]1C[C@@H](C[C@H]2CC[C@H](C)[C@H]([C@@H](C)C(=O)O)O2)O[C@]2(O[C@](C)([C@H]3CC[C@@](C)([C@@H]4O[C@@H]([C@H]5O[C@@](O)(CO)[C@H](C)C[C@@H]5C)C[C@@H]4C)O3)C[C@H]2C)[C@@H]1C [Nigericin, nigericin]
growth (amount of colonies present within the petri plate) (Staph ATCC 14775; Table XIV, Non-microaerophilic conditions, final drug concentration 0.1 ng/ml): (+++) (+++=200+ colonies)
growth (amount of colonies present within the petri plate) (Staph ATCC 14775; Table XIV, Non-microaerophilic conditions, final drug concentration 1 ng/ml): (+++) (+++=200+ colonies)
growth (amount of colonies present within the petri plate) (Staph ATCC 14775; Table XIV, Non-microaerophilic conditions, final drug concentration 10 ng/ml): (+++) (+++=200+ colonies)
growth (amount of colonies present within the petri plate) (Staph ATCC 14775; Table XIV, Non-microaerophilic conditions, final drug concentration 100 ng/ml): (+++***) (+++=200+ colonies)
growth (amount of colonies present within the petri plate) (Staph ATCC 14775; Table XIV, Non-microaerophilic conditions, final drug concentration 1 μg/ml): No growth
growth (amount of colonies present within the petri plate) (Staph ATCC 14775; Table XIV, Non-microaerophilic conditions, final drug concentration 10 μg/ml): No growth
growth (amount of colonies present within the petri plate) [1, 3]: (+++) (+++=200+ colonies)
growth (amount of colonies present within the petri plate) [1, 4]: (+++) (+++=200+ colonies)
growth (amount of colonies present within the petri plate) [1, 5]: (+++) (+++=200+ colonies)
growth (amount of colonies present within the petri plate) [1, 6]: No growth
growth (amount of colonies present within the petri plate) [1, 7]: No growth
growth (amount of colonies present within the petri plate) (H. pylori ATCC 43504; Table I, final drug concentration 0.1 ng/ml): (+++) (+++=200+ colonies)
growth (amount of colonies present within the petri plate) (H. pylori ATCC 43504; Table I, final drug concentration 1 ng/ml): (+++) (+++=200+ colonies)
growth (amount of colonies present within the petri plate) (H. pylori ATCC 43504; Table I, final drug concentration 10 ng/ml): (+++) (+++=200+ colonies)
growth (amount of colonies present within the petri plate) (H. pylori ATCC 43504; Table I, final drug concentration 100 ng/ml): (++) (++=50-200 colonies)
growth (amount of colonies present within the petri plate) (H. pylori ATCC 43504; Table I, final drug concentration 1 μg/ml): No growth
growth (amount of colonies present within the petri plate) (H. pylori ATCC 43504; Table I, final drug concentration 10 μg/ml): No growth
growth (amount of colonies present within the petri plate) (H. pylori ATCC 43504; Table II, urease positive, final drug concentration 1 ng/ml): (+++) (+++=200+ colonies)
growth (amount of colonies present within the petri plate) (H. pylori ATCC 43504; Table II, urease positive, final drug concentration 10 ng/ml): (+++) (+++=200+ colonies)
growth (amount of colonies present within the petri plate) (H. pylori ATCC 43504; Table II, urease positive, final drug concentration 1 μg/ml): No growth
growth (amount of colonies present within the petri plate) (H. pylori ATCC 43504; Table II, urease positive, final drug concentration 10 μg/ml): No growth
growth (amount of colonies present within the petri plate) (H. pylori ATCC 43504; Table II, urease positive, final drug concentration 0.1 nglml): (+++) (+++=200+ colonies)
growth (amount of colonies present within the petri plate) (H. pylori ATCC 43504; Table IV, urease positive, final drug concentration 0.1 ng/ml): (+++) (+++=200+ colonies)
growth (amount of colonies present within the petri plate) (H. pylori ATCC 43504; Table IV, urease positive, final drug concentration 1 ng/ml): (+++) (+++=200+ colonies)
growth (amount of colonies present within the petri plate) (H. pylori ATCC 43504; Table IV, urease positive, final drug concentration 10 ng/ml): (+++) (+++=200+ colonies)
growth (amount of colonies present within the petri plate) (H. pylori ATCC 43504; Table IV, urease positive, final drug concentration 100 ng/ml): (+++) (+++=200+ colonies)
growth (amount of colonies present within the petri plate) (H. pylori ATCC 43504; Table IV, urease positive, final drug concentration 1 μg/ml): No growth
growth (amount of colonies present within the petri plate) (H. pylori ATCC 43504; Table IV, urease positive, final drug concentration 10 μg/ml): No growth
growth (amount of colonies present within the petri plate) (H. pylori ATCC 43504; Table V, in the presence of 10 mM urea, final drug concentration 0.1 ng/ml, Nigericin assay done in duplicate): (+++)^1 (+++=200+ colonies)
growth (amount of colonies present within the petri plate) (H. pylori ATCC 43504; Table V, in the presence of 10 mM urea, final drug concentration 1 ng/ml, Nigericin assay done in duplicate): (+++)^1 (+++=200+ colonies)
growth (amount of colonies present within the petri plate) (H. pylori ATCC 43504; Table V, in the presence of 10 mM urea, final drug concentration 10 ng/ml, Nigericin assay done in duplicate): (++)^1 (++=50-200 colonies)
growth (amount of colonies present within the petri plate) (H. pylori ATCC 43504; Table V, in the presence of 10 mM urea, final drug concentration 100 ng/ml, Nigericin assay done in duplicate): (+++)^1 (+++=200+ colonies)
growth (amount of colonies present within the petri plate) (H. pylori ATCC 43504; Table V, in the presence of 10 mM urea, final drug concentration 1 μg/ml, Nigericin assay done in duplicate): (±)^1 (±=0-20 colonies)
growth (amount of colonies present within the petri plate) (H. pylori ATCC 43504; Table V, in the presence of 10 mM urea, final drug concentration 10 μg/ml, Nigericin assay done in duplicate): No growth^1
growth (amount of colonies present within the petri plate) (H. pylori ATCC 43504; Table VI, in the presence of 2.5 mM urea, final drug concentration 1 ng/ml): (+++) (+++=200+ colonies)
growth (amount of colonies present within the petri plate) (H. pylori ATCC 43504; Table VI, in the presence of 2.5 mM urea, final drug concentration 10 ng/ml): (+++) (+++=200+ colonies)
growth (amount of colonies present within the petri plate) (H. pylori ATCC 43504; Table VI, in the presence of 2.5 mM urea, final drug concentration 1 μg/ml): (±) (±=0-20 colonies)

CC[C@@H](C(=O)[C@@H](C)[C@@H](O)[C@H](C)[C@@H]1O[C@@H]([C@@H](CC)C(=O)O)CC[C@@H]1C)[C@H]1O[C@]2(C=C[C@@H](O)[C@]3(CC[C@@](C)([C@H]4CC[C@](O)(CC)[C@H](C)O4)O3)O2)[C@H](C)C[C@@H]1C [Salinomycin, salinomycin]
growth (amount of colonies present within the petri plate) (Staph ATCC 14775; Table XV, Non microaerophilic conditions, final drug concentration 10 ng/ml): (+++) (+++=200+ colonies)
growth (amount of colonies present within the petri plate) (Staph ATCC 14775; Table XV, Non microaerophilic conditions, final drug concentration 100 ng/ml): (+++) (+++=200+ colonies)
growth (amount of colonies present within the petri plate) (Staph ATCC 14775; Table XV, Non microaerophilic conditions, final drug concentration 1 μg/ml): (+++)^1 (+++=200+ colonies)
growth (amount of colonies present within the petri plate) (Staph ATCC 14775; Table XV, Non microaerophilic conditions, final drug concentration 10 μg/ml): No growth
growth (amount of colonies present within the petri plate) [2, 3]: (+++) (+++=200+ colonies)
growth (amount of colonies present within the petri plate) ([2]; final drug concentration 1 ng/ml): (+++) (+++=200+ colonies)
growth (amount of colonies present within the petri plate) [2, 4]: (+++) (+++=200+ colonies)
growth (amount of colonies present within the petri plate) [2, 5]: (+++) (+++=200+ colonies)
growth (amount of colonies present within the petri plate) [2, 6]: (+++) (+++=200+ colonies)
growth (amount of colonies present within the petri plate) [2, 7]: No growth
MIC (H. pylori ATCC 43504; Helicobacter pylori, ATCC43504): 6.25 µg/mL (≈ 8.32 µM)
growth (amount of colonies present within the petri plate) (H. pylori ATCC 43504; Table VII, urease positive, final drug concentration 0.098 μg/ml): (+++) (+++=200+ colonies)
growth (amount of colonies present within the petri plate) (H. pylori ATCC 43504; Table VII, urease positive, final drug concentration 0.195 μg/ml): (+++) (+++=200+ colonies)
growth (amount of colonies present within the petri plate) (H. pylori ATCC 43504; Table VII, urease positive, final drug concentration 0.39 μg/ml): (+++) (+++=200+ colonies)
growth (amount of colonies present within the petri plate) (H. pylori ATCC 43504; Table VII, urease positive, final drug concentration 0.78 μg/ml): (+++) (+++=200+ colonies)
growth (amount of colonies present within the petri plate) (H. pylori ATCC 43504; Table VII, urease positive, final drug concentration 1.56 μg/ml): (+++) (+++=200+ colonies)
